Like-named read-outs stand apart in the source and are kept apart here.

What all share (assay): KinomeScan kinase panel, single concentration 10 µM
Assay type in all cases: binding

Assay [1] deals with T1, KinomeScan kinase panel (Homo sapiens, UniProt Q6PHR2).
T1 construct: purchased DiscoveRx (KinomeScan)
T1 sequence (Q6PHR2 1-472): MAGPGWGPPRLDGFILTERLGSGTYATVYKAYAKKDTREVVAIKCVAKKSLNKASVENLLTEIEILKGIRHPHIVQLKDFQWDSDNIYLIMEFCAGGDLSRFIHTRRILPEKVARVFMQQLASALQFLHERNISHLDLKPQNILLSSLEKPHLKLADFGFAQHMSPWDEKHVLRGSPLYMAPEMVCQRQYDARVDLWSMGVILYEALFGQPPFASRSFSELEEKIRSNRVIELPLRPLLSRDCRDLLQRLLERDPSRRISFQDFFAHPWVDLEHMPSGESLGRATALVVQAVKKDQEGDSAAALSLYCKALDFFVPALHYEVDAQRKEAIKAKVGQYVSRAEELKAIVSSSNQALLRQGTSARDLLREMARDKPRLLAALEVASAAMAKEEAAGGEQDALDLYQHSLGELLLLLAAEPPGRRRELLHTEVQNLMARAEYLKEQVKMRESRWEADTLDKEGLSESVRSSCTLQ
Conditions: kinase ULK3; 10 µM.

The target of assay [2] is T2, KinomeScan kinase panel (Homo sapiens, UniProt P54646).
T2 construct: purchased DiscoveRx (KinomeScan)
To be noted: AMPK-alpha2, 10 µM; read-out: score (%).

Assay [3] has as its target T3, KinomeScan kinase panel (Homo sapiens, UniProt P00519, F317L).
T3 construct: purchased DiscoveRx (KinomeScan)
To be noted: 10 µM, read-out: score (%).

Assay [4] deals with T4, KinomeScan kinase panel (Homo sapiens, UniProt Q9H3Y6).
T4 construct: purchased DiscoveRx (KinomeScan)
To be noted: 10 µM, read-out: score (%).

Assay [5] has as its target T5, KinomeScan kinase panel (Homo sapiens, UniProt O15075).
T5 construct: purchased DiscoveRx (KinomeScan)
Conditions: DCAMKL1, 10 µM.

In assay [6] the target is T6, KinomeScan kinase panel (Homo sapiens, UniProt P31152).
T6 construct: purchased DiscoveRx (KinomeScan)
To be noted: ERK4, 10 µM; read-out: score (%).

Assay [7] addresses T7, KinomeScan kinase panel (Homo sapiens, UniProt Q9Y6R4).
T7 construct: purchased DiscoveRx (KinomeScan)
To be noted: MAP3K4, 10 µM; read-out: score (%).

The target of assay [8] is T8, KinomeScan kinase panel (Homo sapiens, UniProt Q9UK32).
T8 construct: purchased DiscoveRx (KinomeScan)
To be noted: 10 µM.

Assay [9] addresses T9, KinomeScan kinase panel (Homo sapiens, UniProt Q9UPE1).
T9 construct: purchased DiscoveRx (KinomeScan)
Conditions: read-out: score (%).

Assay [10] has as its target T10, KinomeScan kinase panel (Homo sapiens, UniProt Q15349).
T10 construct: purchased DiscoveRx (KinomeScan)
To be noted: 10 µM, read-out: score (%).

Assay [11] has as its target T11, KinomeScan kinase panel (Homo sapiens, UniProt P42680).
T11 construct: purchased DiscoveRx (KinomeScan)
T11 sequence (P42680 1-631): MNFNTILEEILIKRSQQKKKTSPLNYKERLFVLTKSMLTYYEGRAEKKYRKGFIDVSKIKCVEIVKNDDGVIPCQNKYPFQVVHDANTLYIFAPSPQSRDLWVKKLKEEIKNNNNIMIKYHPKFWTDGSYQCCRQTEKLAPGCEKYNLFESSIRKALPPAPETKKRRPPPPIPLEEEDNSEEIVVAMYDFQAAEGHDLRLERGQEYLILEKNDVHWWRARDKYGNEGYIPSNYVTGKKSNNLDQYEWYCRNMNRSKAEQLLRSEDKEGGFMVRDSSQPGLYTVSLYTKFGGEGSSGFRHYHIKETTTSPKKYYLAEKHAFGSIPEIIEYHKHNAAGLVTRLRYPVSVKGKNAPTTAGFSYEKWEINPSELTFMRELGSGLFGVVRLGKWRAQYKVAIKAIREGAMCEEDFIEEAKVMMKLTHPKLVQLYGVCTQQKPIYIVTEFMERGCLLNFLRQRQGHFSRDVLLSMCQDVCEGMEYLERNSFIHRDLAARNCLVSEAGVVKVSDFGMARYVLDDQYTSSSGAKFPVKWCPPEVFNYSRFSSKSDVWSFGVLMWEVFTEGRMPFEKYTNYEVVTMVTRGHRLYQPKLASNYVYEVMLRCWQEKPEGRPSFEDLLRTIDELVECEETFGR
Conditions: 10 µM, read-out: score (%).

In assay [12] the target is T12, KinomeScan kinase panel (Homo sapiens, UniProt Q9NYL2).
T12 construct: purchased DiscoveRx (KinomeScan)
Conditions: kinase ZAK; 10 µM; read-out: score (%).

T8 sequence (Q9UK32 whole entry): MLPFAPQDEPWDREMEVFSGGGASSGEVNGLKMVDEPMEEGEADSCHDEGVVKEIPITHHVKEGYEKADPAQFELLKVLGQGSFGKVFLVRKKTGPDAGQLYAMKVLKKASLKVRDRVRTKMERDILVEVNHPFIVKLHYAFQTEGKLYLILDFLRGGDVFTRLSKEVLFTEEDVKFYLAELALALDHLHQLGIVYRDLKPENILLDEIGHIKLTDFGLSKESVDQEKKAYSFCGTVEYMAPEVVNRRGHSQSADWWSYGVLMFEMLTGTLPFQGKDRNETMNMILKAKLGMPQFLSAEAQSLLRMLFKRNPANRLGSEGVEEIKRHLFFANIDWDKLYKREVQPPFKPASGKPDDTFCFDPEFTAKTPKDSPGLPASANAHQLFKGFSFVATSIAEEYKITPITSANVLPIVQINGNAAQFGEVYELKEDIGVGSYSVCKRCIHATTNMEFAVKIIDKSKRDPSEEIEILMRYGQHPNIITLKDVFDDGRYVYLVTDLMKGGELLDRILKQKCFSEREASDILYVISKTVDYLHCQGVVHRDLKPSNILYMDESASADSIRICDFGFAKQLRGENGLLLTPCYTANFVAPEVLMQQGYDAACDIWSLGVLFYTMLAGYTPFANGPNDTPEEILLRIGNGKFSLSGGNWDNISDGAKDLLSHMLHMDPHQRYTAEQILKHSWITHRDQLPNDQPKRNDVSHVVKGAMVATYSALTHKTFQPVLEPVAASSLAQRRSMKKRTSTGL
T12 sequence (Q9NYL2 whole entry): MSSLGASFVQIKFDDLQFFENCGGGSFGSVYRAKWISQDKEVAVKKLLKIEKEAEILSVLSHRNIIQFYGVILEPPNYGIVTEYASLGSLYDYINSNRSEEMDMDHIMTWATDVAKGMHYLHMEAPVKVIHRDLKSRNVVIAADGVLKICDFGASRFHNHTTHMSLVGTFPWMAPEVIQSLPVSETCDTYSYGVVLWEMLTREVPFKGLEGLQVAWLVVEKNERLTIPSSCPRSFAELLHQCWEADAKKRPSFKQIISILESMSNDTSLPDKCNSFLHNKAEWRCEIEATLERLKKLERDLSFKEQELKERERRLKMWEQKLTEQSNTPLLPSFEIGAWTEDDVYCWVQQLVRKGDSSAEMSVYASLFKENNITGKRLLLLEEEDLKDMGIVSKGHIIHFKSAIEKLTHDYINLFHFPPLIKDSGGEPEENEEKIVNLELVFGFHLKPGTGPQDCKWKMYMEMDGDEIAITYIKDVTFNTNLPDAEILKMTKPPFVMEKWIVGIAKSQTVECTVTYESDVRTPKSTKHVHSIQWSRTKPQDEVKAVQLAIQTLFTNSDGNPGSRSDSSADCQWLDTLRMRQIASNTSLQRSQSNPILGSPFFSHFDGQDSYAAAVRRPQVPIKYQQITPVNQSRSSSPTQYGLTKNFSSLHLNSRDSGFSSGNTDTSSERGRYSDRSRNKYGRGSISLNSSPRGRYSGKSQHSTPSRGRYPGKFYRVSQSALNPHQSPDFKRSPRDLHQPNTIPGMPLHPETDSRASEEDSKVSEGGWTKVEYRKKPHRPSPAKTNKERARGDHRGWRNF
T3 sequence (P00519 whole entry F317L): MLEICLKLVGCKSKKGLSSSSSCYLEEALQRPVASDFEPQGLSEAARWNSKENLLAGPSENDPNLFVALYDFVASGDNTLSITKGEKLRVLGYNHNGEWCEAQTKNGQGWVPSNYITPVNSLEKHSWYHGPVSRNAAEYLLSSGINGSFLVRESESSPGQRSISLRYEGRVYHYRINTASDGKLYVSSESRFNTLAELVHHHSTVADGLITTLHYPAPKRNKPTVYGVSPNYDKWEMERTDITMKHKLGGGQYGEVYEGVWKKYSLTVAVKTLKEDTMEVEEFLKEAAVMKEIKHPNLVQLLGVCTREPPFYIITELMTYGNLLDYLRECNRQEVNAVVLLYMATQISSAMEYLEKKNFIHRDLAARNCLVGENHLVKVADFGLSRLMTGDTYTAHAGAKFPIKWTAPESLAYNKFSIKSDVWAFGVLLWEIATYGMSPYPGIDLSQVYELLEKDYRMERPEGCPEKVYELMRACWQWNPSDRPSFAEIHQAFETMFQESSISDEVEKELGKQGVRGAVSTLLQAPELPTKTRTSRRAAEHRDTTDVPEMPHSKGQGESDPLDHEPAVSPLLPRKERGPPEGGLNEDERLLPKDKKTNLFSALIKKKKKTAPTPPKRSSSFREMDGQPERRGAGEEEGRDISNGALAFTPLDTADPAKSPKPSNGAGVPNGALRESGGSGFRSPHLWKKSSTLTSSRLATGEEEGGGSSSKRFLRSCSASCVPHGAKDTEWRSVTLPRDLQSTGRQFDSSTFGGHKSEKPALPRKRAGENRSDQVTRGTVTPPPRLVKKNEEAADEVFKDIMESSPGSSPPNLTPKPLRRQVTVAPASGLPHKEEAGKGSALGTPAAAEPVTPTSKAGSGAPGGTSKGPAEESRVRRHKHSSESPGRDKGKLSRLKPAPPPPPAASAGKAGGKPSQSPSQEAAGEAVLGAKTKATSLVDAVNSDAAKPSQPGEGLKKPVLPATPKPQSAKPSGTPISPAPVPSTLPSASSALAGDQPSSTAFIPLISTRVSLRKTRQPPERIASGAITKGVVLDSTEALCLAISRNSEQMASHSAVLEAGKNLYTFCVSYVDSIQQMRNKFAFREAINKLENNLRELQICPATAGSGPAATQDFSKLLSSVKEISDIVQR
T4 sequence (Q9H3Y6 whole entry): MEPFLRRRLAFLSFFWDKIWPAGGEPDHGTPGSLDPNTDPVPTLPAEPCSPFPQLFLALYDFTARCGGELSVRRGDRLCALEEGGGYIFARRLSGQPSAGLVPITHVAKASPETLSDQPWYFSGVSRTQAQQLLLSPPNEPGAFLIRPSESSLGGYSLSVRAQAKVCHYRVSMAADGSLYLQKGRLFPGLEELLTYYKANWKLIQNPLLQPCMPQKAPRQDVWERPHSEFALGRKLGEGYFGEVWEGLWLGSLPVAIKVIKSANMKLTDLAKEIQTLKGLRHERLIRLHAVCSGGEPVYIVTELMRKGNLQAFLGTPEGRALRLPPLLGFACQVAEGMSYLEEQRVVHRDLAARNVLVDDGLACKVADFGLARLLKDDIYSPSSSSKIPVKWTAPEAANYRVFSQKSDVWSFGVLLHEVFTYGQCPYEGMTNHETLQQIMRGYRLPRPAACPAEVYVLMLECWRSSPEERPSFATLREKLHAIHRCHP
T2 sequence (P54646 whole entry): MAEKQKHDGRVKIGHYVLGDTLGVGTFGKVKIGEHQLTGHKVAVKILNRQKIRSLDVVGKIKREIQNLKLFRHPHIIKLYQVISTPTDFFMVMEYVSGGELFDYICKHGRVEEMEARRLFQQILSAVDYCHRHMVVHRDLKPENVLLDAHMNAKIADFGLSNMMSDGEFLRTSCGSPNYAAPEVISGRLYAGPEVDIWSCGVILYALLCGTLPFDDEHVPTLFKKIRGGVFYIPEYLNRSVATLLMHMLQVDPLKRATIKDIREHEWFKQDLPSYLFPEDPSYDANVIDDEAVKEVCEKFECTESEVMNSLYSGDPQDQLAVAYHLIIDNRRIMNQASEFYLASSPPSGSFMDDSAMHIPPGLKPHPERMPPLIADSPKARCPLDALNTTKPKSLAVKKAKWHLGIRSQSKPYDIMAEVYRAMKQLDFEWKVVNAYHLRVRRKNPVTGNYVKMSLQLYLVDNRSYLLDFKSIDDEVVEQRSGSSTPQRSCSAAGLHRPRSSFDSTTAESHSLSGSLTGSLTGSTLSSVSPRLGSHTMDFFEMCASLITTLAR
T9 sequence (Q9UPE1 whole entry): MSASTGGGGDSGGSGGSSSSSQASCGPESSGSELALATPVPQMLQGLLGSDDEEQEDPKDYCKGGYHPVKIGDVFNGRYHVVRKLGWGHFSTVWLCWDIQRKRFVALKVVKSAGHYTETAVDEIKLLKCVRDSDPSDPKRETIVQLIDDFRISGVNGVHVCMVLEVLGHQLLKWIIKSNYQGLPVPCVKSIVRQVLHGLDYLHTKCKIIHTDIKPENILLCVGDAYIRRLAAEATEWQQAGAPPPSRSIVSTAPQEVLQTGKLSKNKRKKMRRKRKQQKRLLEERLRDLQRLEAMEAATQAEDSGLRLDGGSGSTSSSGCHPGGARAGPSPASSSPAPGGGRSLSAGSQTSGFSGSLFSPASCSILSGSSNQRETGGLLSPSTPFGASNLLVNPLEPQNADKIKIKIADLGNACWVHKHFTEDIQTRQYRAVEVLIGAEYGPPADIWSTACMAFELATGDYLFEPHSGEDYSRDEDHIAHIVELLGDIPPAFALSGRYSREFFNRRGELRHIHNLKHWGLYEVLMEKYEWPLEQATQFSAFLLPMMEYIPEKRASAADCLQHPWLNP
T6 sequence (P31152 whole entry): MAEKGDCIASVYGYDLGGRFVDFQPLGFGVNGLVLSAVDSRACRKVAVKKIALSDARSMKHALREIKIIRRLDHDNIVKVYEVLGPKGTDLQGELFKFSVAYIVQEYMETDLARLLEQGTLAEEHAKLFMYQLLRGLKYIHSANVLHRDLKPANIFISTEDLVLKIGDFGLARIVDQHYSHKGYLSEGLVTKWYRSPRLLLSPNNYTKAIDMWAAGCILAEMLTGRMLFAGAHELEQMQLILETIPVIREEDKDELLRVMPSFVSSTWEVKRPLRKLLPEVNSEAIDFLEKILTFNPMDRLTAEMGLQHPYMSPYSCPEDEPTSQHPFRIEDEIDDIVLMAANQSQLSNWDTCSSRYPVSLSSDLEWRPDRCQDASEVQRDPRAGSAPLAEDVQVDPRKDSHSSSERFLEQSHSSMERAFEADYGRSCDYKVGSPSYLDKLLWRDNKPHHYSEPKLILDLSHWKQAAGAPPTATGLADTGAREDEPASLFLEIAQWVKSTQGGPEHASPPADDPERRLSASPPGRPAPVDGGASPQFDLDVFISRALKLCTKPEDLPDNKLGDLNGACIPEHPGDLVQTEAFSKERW

`CCN1CCN(Cc2ccc(NC(=O)c3ccc(C)c(NC(=O)c4cncc(-c5cccs5)c4)c3)cc2C(F)(F)F)CC1` [ALW-II-41-27]: the “score (%)” value on KinomeScan kinase panel [1] is 0.95%; at KinomeScan kinase panel [5], “nb (Hits values higher than 30% were considered negative (no binding: nb))”; at KinomeScan kinase panel [8] (kinase RPS6KA6(Kin.Dom.1-N-terminal)) it was “nb (Hits values higher than 30% were considered negative (no binding: nb))”; at KinomeScan kinase panel [8] (kinase RPS6KA6(Kin.Dom.2-C-terminal)), “nb (Hits values higher than 30% were considered negative (no binding: nb))”. For the same compound, the remaining binding at 10 µM on KinomeScan kinase panel [2] is more than 30%; at KinomeScan kinase panel [3] (ABL1(F317L)), 0.2%; at KinomeScan kinase panel [4] (kinase SRMS), 2.8%; on KinomeScan kinase panel [6], more than 30%; at KinomeScan kinase panel [7] it was more than 30%; on KinomeScan kinase panel [9] (kinase SRPK3, 10 µM) it was more than 30%. The remaining binding at 10 µM was more than 30% at KinomeScan kinase panel [10] (kinase RPS6KA2(Kin.Dom.1-N-terminal)), more than 30% on KinomeScan kinase panel [10] (kinase RPS6KA2(Kin.Dom.2-C-terminal)), 1.7% on KinomeScan kinase panel [11] (kinase TEC) and 3% on KinomeScan kinase panel [12].
`CCN1CCN(Cc2ccc(NC(=O)c3ccc(C)c(/C=C/c4cnc5[nH]ccc5c4Cl)c3)cc2C(F)(F)F)CC1` [HG-6-63-01, (E)-3-(2-(4-chloro-1H-pyrrolo[2,3-b]pyridin-5-yl)vinyl)-N-(4-((4-ethylpiperazin-1-yl)methyl)-3-(trifluoromethyl)phenyl)-4-methylbenzamide]: the “score (%)” value on KinomeScan kinase panel [1] is recorded as 23%; at KinomeScan kinase panel [5] it was “nb (Hits values higher than 30% were considered negative (no binding: nb))”; at KinomeScan kinase panel [8] (RPS6KA6(Kin.Dom.1)), “nb (Hits values higher than 30% were considered negative (no binding: nb))”; on KinomeScan kinase panel [8] (RPS6KA6(Kin.Dom.2)), “nb (Hits values higher than 30% were considered negative (no binding: nb))”. The remaining binding at 10 µM was more than 30% at KinomeScan kinase panel [2]; 0.1% at KinomeScan kinase panel [3] (ABL1(F317L)); 23% on KinomeScan kinase panel [4] (SRMS); more than 30% on KinomeScan kinase panel [6]; more than 30% at KinomeScan kinase panel [7]; 22% at KinomeScan kinase panel [9] (SRPK3, 10 µM). Further, the remaining binding at 10 µM on KinomeScan kinase panel [10] (RPS6KA2(Kin.Dom.1)) was 7.4%; at KinomeScan kinase panel [10] (RPS6KA2(Kin.Dom.2)) it was more than 30%; at KinomeScan kinase panel [11] (TEC) it was 1.2%; on KinomeScan kinase panel [12], 0.35%.
In the case of `CCN1CCN(Cc2ccc(NC(=O)c3ccc(C)c(C#Cc4cccnc4)c3)cc2C(F)(F)F)CC1` [XMD15-44], the “score (%)” value on KinomeScan kinase panel [1] is listed as 0.25%; at KinomeScan kinase panel [5], “nb (Hits values higher than 30% were considered negative (no binding: nb))”; at KinomeScan kinase panel [8] (kinase RSK4(Kin.Dom.1-N-terminal)) it was 47%; at KinomeScan kinase panel [8] (kinase RSK4(Kin.Dom.2-C-terminal)) it was 6.8%. In addition, the remaining binding at 10 µM on KinomeScan kinase panel [2] is 18%; at KinomeScan kinase panel [3] (ABL1(F317L)-nonphosphorylated), 0%; at KinomeScan kinase panel [3] (ABL1(F317L)-phosphorylated) it was 0.85%; on KinomeScan kinase panel [4] (kinase SRMS), 0%; on KinomeScan kinase panel [6], more than 30%; at KinomeScan kinase panel [7], more than 30%. The remaining binding at 10 µM on KinomeScan kinase panel [9] (kinase SRPK3, 10 µM) was 45%; at KinomeScan kinase panel [10] (kinase RSK3(Kin.Dom.1-N-terminal)), 9.5%; at KinomeScan kinase panel [10] (kinase RSK3(Kin.Dom.2-C-terminal)), 30%; at KinomeScan kinase panel [11] (kinase TEC), 3.7%; at KinomeScan kinase panel [12], 0.4%.

These data come from PMC4457528, “Identification of Novel Small Molecule Inhibitors of Oncogenic RET Kinase” (PLoS ONE, 2015).
